{
  "source": "EPA's ToxRefDB 2",
  "key": {"mouse [1]": {"test_system": "mouse", "settings": "Combined chronic toxicity/carcinogenicity, b6c3f1, Oral, Feed, dose end: 2 year, group: systemic"}, "rat [2]": {"test_system": "rat", "settings": "Multigenerational reproductive toxicity study, sprague dawley, Oral, Feed, dose end: 2 generation"}, "dog": {"test_system": "dog", "settings": "Chronic toxicity; beagle; Oral; Feed; dose end: 53 week; group: cholinesterase; cholinesterase / cholinesterase / cholinesterase / erythrocyte cholinesterase (che) + cholinesterase / cholinesterase / cholinesterase / …"}, "rabbit [3]": {"test_system": "rabbit", "settings": "Prenatal developmental toxicity study, chinchilla, Oral, Gavage/Intubation, dose end: 18 GD"}, "rat [4]": {"test_system": "rat", "settings": "Combined chronic toxicity/carcinogenicity, fischer, Oral, Feed, dose end: 2 year"}, "rabbit [5]": {"test_system": "rabbit", "settings": "Prenatal developmental toxicity study, dutch, Oral, Gavage/Intubation, dose end: 18 GD"}, "rat [6]": {"test_system": "rat", "settings": "Subchronic oral toxicity in rodents, fischer, Feed, dose end: 13 week, group: systemic, systemic / in life observation / body weight / body weight"}, "mouse [7]": {"test_system": "mouse", "settings": "Combined chronic toxicity/carcinogenicity, b6c3f1, Oral, Feed, dose end: 102 week"}, "[8]": {"settings": "systemic / in life observation / clinical signs / fur (altered appearance) + systemic / pathology microscopic / skin / fibrosarcoma + …"}, "[9]": {"settings": "systemic / pathology microscopic / skin / fibrosarcoma + systemic / pathology microscopic / skin / rhabdomyosarcoma + systemic / in life …"}, "[10]": {"settings": "group: cholinesterase, cholinesterase / cholinesterase / cholinesterase / brain cholinesterase (che) + cholinesterase / cholinesterase / cholinesterase / …"}, "[11]": {"settings": "group: offspring, developmental / offspring survival late / [other] / [other] + developmental / offspring survival late / viability index / viability index + …"}, "[12]": {"settings": "group: parental, systemic / pathology microscopic / epididymis / vacuolization"}, "[13]": {"settings": "group: parental, systemic / pathology microscopic / epididymis / vacuolization + systemic / organ weight / epididymis / absolute"}, "[14]": {"settings": "group: reproductive, reproductive / offspring survival early / birth index / birth index + reproductive / reproductive performance / fertility / fertility + …"}, "[15]": {"settings": "group: developmental, systemic / in life observation / body weight / fetal weight"}, "[16]": {"settings": "group: maternal, reproductive / reproductive performance / resorptions / resorptions"}, "[17]": {"settings": "group: maternal, reproductive / reproductive performance / resorptions / resorptions + reproductive / reproductive performance / aborted / aborted + …"}, "[18]": {"settings": "group: systemic, systemic / in life observation / clinical signs / alopecia + systemic / in life observation / clinical signs / soft stools + systemic / in …"}, "[19]": {"settings": "group: developmental, systemic / in life observation / body weight / fetal weight + developmental / developmental malformation / bone / unossified"}, "[20]": {"settings": "group: maternal, systemic / in life observation / clinical signs / soft stools"}, "[21]": {"settings": "group: maternal, systemic / in life observation / clinical signs / soft stools + reproductive / reproductive performance / resorptions / resorptions + …"}, "[22]": {"settings": "group: cholinesterase, cholinesterase / cholinesterase / cholinesterase / plasma cholinesterase (che)"}, "[23]": {"settings": "group: systemic, systemic / in life observation / body weight / body weight"}, "[24]": {"settings": "group: systemic, systemic / in life observation / body weight / body weight + systemic / clinical chemistry / cholesterol / cholesterol + systemic / organ …"}},
  "data": [
    {"smiles": "COP(=S)(OC)Oc1ccc(SC)c(C)c1", "note": "[Fenthion]", "values": [
      {"measurement": "LOAEL", "setting": "mouse [1]; [8]", "result": "> 3", "unit": "mg/kg/day"},
      {"measurement": "NOAEL", "setting": "mouse [1]; [8]", "result": "≥ 3", "unit": "mg/kg/day"},
      {"measurement": "LEL", "setting": "mouse [1]; [9]", "result": 1.5, "unit": "mg/kg/day"},
      {"measurement": "NEL", "setting": "mouse [1]; [9]", "result": "< 1.5", "unit": "mg/kg/day"},
      {"measurement": "LEL", "setting": "rat [2]; [10]", "result": 0.7, "unit": "mg/kg/day"},
      {"measurement": "LOAEL", "setting": "rat [2]; [10]", "result": 0.7, "unit": "mg/kg/day"},
      {"measurement": "NEL", "setting": "rat [2]; [10]", "result": 0.1, "unit": "mg/kg/day"},
      {"measurement": "NOAEL", "setting": "rat [2]; [10]", "result": 0.1, "unit": "mg/kg/day"},
      {"measurement": "LEL", "setting": "rat [2]; [11]", "result": 5, "unit": "mg/kg/day"},
      {"measurement": "LOAEL", "setting": "rat [2]; [11]", "result": "> 5", "unit": "mg/kg/day"},
      {"measurement": "NEL", "setting": "rat [2]; [11]", "result": 0.7, "unit": "mg/kg/day"},
      {"measurement": "NOAEL", "setting": "rat [2]; [11]", "result": "≥ 5", "unit": "mg/kg/day"},
      {"measurement": "LEL", "setting": "rat [2]; [12]", "result": 0.7, "unit": "mg/kg/day"},
      {"measurement": "LOAEL", "setting": "rat [2]; [12]", "result": 0.7, "unit": "mg/kg/day"},
      {"measurement": "NEL", "setting": "rat [2]; [13]", "result": 0.1, "unit": "mg/kg/day"},
      {"measurement": "NOAEL", "setting": "rat [2]; [13]", "result": 0.1, "unit": "mg/kg/day"},
      {"measurement": "LEL", "setting": "rat [2]; [14]", "result": 5, "unit": "mg/kg/day"},
      {"measurement": "LOAEL", "setting": "rat [2]; [14]", "result": "> 5", "unit": "mg/kg/day"},
      {"measurement": "NEL", "setting": "rat [2]; [14]", "result": 0.7, "unit": "mg/kg/day"},
      {"measurement": "NOAEL", "setting": "rat [2]; [14]", "result": "≥ 5", "unit": "mg/kg/day"},
      {"measurement": "LEL", "setting": "dog", "result": 0.258, "unit": "mg/kg/day"},
      {"measurement": "LOAEL", "setting": "dog", "result": 0.258, "unit": "mg/kg/day"},
      {"measurement": "NEL", "setting": "dog", "result": 0.056, "unit": "mg/kg/day"},
      {"measurement": "NOAEL", "setting": "dog", "result": 0.056, "unit": "mg/kg/day"},
      {"measurement": "LEL", "setting": "rabbit [3]; [15]", "result": 18, "unit": "mg/kg/day"},
      {"measurement": "LOAEL", "setting": "rabbit [3]; [15]", "result": 18, "unit": "mg/kg/day"},
      {"measurement": "NEL", "setting": "rabbit [3]; [15]", "result": 6, "unit": "mg/kg/day"},
      {"measurement": "NOAEL", "setting": "rabbit [3]; [15]", "result": 6, "unit": "mg/kg/day"},
      {"measurement": "LEL", "setting": "rabbit [3]; [16]", "result": 6, "unit": "mg/kg/day"},
      {"measurement": "LOAEL", "setting": "rabbit [3]; [16]", "result": 6, "unit": "mg/kg/day"},
      {"measurement": "NEL", "setting": "rabbit [3]; [17]", "result": 2, "unit": "mg/kg/day"},
      {"measurement": "NOAEL", "setting": "rabbit [3]; [17]", "result": 2, "unit": "mg/kg/day"},
      {"measurement": "LEL", "setting": "rat [4]; [10]", "result": 0.07, "unit": "mg/kg/day"},
      {"measurement": "LOAEL", "setting": "rat [4]; [10]", "result": 0.07, "unit": "mg/kg/day"},
      {"measurement": "NEL", "setting": "rat [4]; [10]", "result": "< 0.07", "unit": "mg/kg/day"},
      {"measurement": "NOAEL", "setting": "rat [4]; [10]", "result": "< 0.07", "unit": "mg/kg/day"},
      {"measurement": "LEL", "setting": "rat [4]; [18]", "result": 0.3, "unit": "mg/kg/day"},
      {"measurement": "LOAEL", "setting": "rat [4]; [18]", "result": 0.3, "unit": "mg/kg/day"},
      {"measurement": "NEL", "setting": "rat [4]; [18]", "result": 0.07, "unit": "mg/kg/day"},
      {"measurement": "NOAEL", "setting": "rat [4]; [18]", "result": 0.07, "unit": "mg/kg/day"},
      {"measurement": "LEL", "setting": "rabbit [5]; [10]", "result": 2.75, "unit": "mg/kg/day"},
      {"measurement": "LOAEL", "setting": "rabbit [5]; [10]", "result": 2.75, "unit": "mg/kg/day"},
      {"measurement": "NEL", "setting": "rabbit [5]; [10]", "result": 1, "unit": "mg/kg/day"},
      {"measurement": "NOAEL", "setting": "rabbit [5]; [10]", "result": 1, "unit": "mg/kg/day"},
      {"measurement": "LEL", "setting": "rabbit [5]; [15]", "result": 2.75, "unit": "mg/kg/day"},
      {"measurement": "LOAEL", "setting": "rabbit [5]; [19]", "result": "> 7.5", "unit": "mg/kg/day"},
      {"measurement": "NEL", "setting": "rabbit [5]; [19]", "result": 1, "unit": "mg/kg/day"},
      {"measurement": "NOAEL", "setting": "rabbit [5]; [19]", "result": "≥ 7.5", "unit": "mg/kg/day"},
      {"measurement": "LEL", "setting": "rabbit [5]; [20]", "result": 2.75, "unit": "mg/kg/day"},
      {"measurement": "LOAEL", "setting": "rabbit [5]; [20]", "result": 2.75, "unit": "mg/kg/day"},
      {"measurement": "NEL", "setting": "rabbit [5]; [21]", "result": 1, "unit": "mg/kg/day"},
      {"measurement": "NOAEL", "setting": "rabbit [5]; [21]", "result": 1, "unit": "mg/kg/day"},
      {"measurement": "LEL", "setting": "rat [6]", "result": 16, "unit": "mg/kg/day"},
      {"measurement": "LOAEL", "setting": "rat [6]", "result": 16, "unit": "mg/kg/day"},
      {"measurement": "NEL", "setting": "rat [6]", "result": 8, "unit": "mg/kg/day"},
      {"measurement": "NOAEL", "setting": "rat [6]", "result": 8, "unit": "mg/kg/day"},
      {"measurement": "LEL", "setting": "mouse [7]; [22]", "result": 0.03, "unit": "mg/kg/day"},
      {"measurement": "LOAEL", "setting": "mouse [7]; [22]", "result": 0.03, "unit": "mg/kg/day"},
      {"measurement": "NEL", "setting": "mouse [7]; [22]", "result": "< 0.03", "unit": "mg/kg/day"},
      {"measurement": "NOAEL", "setting": "mouse [7]; [22]", "result": "< 0.03", "unit": "mg/kg/day"},
      {"measurement": "LEL", "setting": "mouse [7]; [23]", "result": 1.95, "unit": "mg/kg/day"},
      {"measurement": "LOAEL", "setting": "mouse [7]; [23]", "result": 1.95, "unit": "mg/kg/day"},
      {"measurement": "NEL", "setting": "mouse [7]; [24]", "result": 0.4, "unit": "mg/kg/day"},
      {"measurement": "NOAEL", "setting": "mouse [7]; [24]", "result": 0.4, "unit": "mg/kg/day"}
    ]}
  ]
}
